In article PMC9964938, “Synthesis and Properties of Sucrose- and Lactose-Based Aromatic Ester Surfactants as Potential Drugs Permeability Enhancers” (Pharmaceuticals, 2023):

Columns and labels:
Calu-3 monolayers [1] = system: Calu-3 monolayers; set-up: method as in PMID 29970849; details: Calu-3 cells, non-cytotoxic concentration, reversible; cited from earlier work
[2] = CMC by pyrene fluorescence spectroscopy; assay type: physicochemical; details: pyrene I/III peak ratio, aqueous solution, 25 °C
Source text: Pyrene is a common fluorescence probe, widely employed to investigate the aggregation state of surfactant in aqueous solution, as its emission properties are strongly influenced by the polarity of the microenvironment. Specifically, a decrease in the ratio between I and III peaks is observed when the hydrophobicity increases in the surroundings of pyrene as a result of the aggregation of surfactants into micelles or supramolecular aggregates. […] As is common for surfactants, the concentration at which aggregation in aqueous solution occurs is strongly dependent on the hydrophilicity/hydrophobicity balance between the surfactant head and tail. Specifically, changes in the hydrophobicity of the surfactant tail exert a marked effect on the self-assembling properties for a surfactant bearing the same polar head. On the contrary, the variation in the sugar head has a minor effect.
The pyrene emissions in the surfactant solutions at different concentrations (0.03–4 mM) were measured using a LS 55 fluorescence spectrometer (PerkinElmer, Waltar, MA, USA) equipped with a thermostatic bath HAAKE C25P (Artisan Scientific Corporation, Champaign, IL, USA). For the analyses, three microliters of the pyrene solution in CH3OH (2 μM) were added to each of the aqueous surfactant solutions. The excitation wavelength was 334 nm. Ten acquisitions were recorded for each solution in the range of 200–700 nm at a temperature of 25 °C. The peak intensity I (λ = 372 nm) to III (λ = 384 nm) ratio was plotted against the surfactant concentrations. CMC values were calculated from the center of the sigmoid by fitting the experimental data through the Boltzmann nonlinear regression (GraphPad Prism 6 software) according to the following equation: bottom+(top−bottom)/1+10^[(logCMC−x)hill slope] where the top and bottom are the plateau of the curve and the hill slope is the steepness.

[3] = CMC by dynamic light scattering (counts); assay type: physicochemical; details: counts vs concentration, 25 °C
Source text: The DLS from the counts analysis confirmed the self-assembling properties of the amphiphiles analyzed as evidenced by the fluorescence measurements. Figure 2b reports the variation in the scattering intensities to the detector (kCps) as a function of the surfactant concentration.
As unimers, instead, the hydrodynamic sizes of the surfactant molecules were too small and the scattering properties of the solutions were not markedly different from those of the medium.
The scattering intensity to the detector (counts, kCps) was measured for different concentrations (0.03–4 mM) of surfactant solution using a Malvern Zetasizer Nano S (Malvern, Worcestershire, UK). Measurements were performed at 25 °C at a fixed laser position (4.65) and attenuation (11). CMC values were calculated from counts versus concentration plots by fitting the experimental data using the segmental linear regression model (GraphPad Prism 6 software).

Calu-3 monolayers [4] = experiment: TEER measurement; assay type: cell-based, human; details: Calu-3 cells; for effect on TEER: surfactant 4 mM in HBSS, 3 h; for decrease in TEER with respect to basal value: surfactant 4 mM, reversible
Protocol: TEER studies were performed in Calu-3 cells (Figure 4) to preliminarily evaluate the potential use of the synthesized sugar esters as absorption enhancers. […] .
Calu-3 cells were seeded on filter inserts Transwell® at ~200,000 cells per insert. The cells were cultured in Dulbecco Modified Eagle Medium (DMEM)-F12 to confluence for around three weeks using an air–liquid culture condition. The culture medium was changed every 48 h. […] Baseline TEER was recorded following 30 min of equilibration in HBSS. […] The cells were incubated with the samples or HBSS as a control for 3 h. During this period, TEER was measured every 30 min. The samples were then removed and the cells were washed extensively using HBSS. Culture medium was added to the basolateral chamber and a further measurement of TEER was taken at 24 h following sample application to establish TEER reversibility. The change in TEER was reported as a percentage relative to the baseline value.

Calu-3 cells = experiment: MTT cell viability assay; assay type: cell-based, human; details: 3 h incubation
Protocol: All the compounds were tested to evaluate their cytotoxicity profile on Calu-3 cells. The MTT colorimetric assay, based on the reduction of a yellow tetrazolium salt MTT to purple formazan crystals by metabolically active cells, was used to measure the cellular metabolic activity as an indicator of cell viability, proliferation, and cytotoxicity. Indeed, the viable cells contain NAD(P)H-dependent oxidoreductase enzymes, which reduce MTT to formazan. […] Moreover, the LDH release assay, used to assess the level of plasma membrane damage in a cell population, was performed to evaluate the cytotoxicity of the sugar esters. LDH is in fact a stable enzyme found in all cell types and is rapidly released into the cell culture medium following damage to the plasma membrane that occurs after cell damage or death. […]
Calu-3 cells were seeded on 96-well plates at ~50,000 cells per well and were incubated to attain at least 80% confluence before the experiment. Prior to the assay, the culture medium was removed and replaced with different concentrations of surfactants (0.03 to 4.5 mM for the fluorescence spectroscopy and DLS analysis) in Hank’s balanced salt solution (HBSS). […] The supernatant was collected for the LDH assay and the cell viability was measured with the MTT assay according to the manufacturers’ instructions, with at least three repeats for each sample.

Calu-3 monolayers [5] = experiment: FITC-dextran in vitro cell permeability study; details: surfactant 4 mM
Protocol: Cell monolayers with TEER over 800 Ω were used in these studies to ensure the integrity of the monolayers. FITC-dextran MW 4000 was used as a model macromolecular drug. Prior to sample application, the culture medium was removed, and the cell layers were washed with HBSS. The cells were equilibrated in HBSS for 30 min. Sucrose ester solutions at 4 mM and dextran at a final concentration of 0.5 mg/mL in HBSS were applied to the apical side of the cells. HBSS was added to the basolateral side. A basolateral solution of 100 µL was collected at 30, 60, 90, 120, 150, and 180 min after sample application and replaced with an equivalent volume of fresh HBSS. The amount of dextran permeating the cell monolayers in 3 h was quantified by spectrofluorometric analysis.

Row | Molecule | TEER, % of the baseline value after decrease (Calu-3 monolayers [1]) | Fluorescence Spectroscopy CMC [2] | Dynamic Light Scattering CMC [3] | effect on TEER (Calu-3 monolayers [4]) | cell viability (MTT) (Calu-3 cells; highest tested concentration of 4.5 mM) | permeation enhancing effect on FITC-dextran Papp (Calu-3 monolayers [5]; Calu-3 cell layers, FITC-dextran MW 4000 0.5 mg/mL) | increase in FITC-dextran permeability vs control (Calu-3 monolayers [5]; Calu-3 cells, non-statistically significant vs control) | decrease in TEER with respect to basal value (Calu-3 monolayers [4]) | cell viability (MTT), lowest level reached (Calu-3 cells; 0.03 to 4.5 mM)
1 | CCCCCCCCCCCC(=O)OCC1OC(OC2C(CO)OC(O)C(O)C2O)C(O)C(O)C1O (stereo not shown) [6′-lactose laurate] | ~ 25% |  |  |  |  |  |  |  | 
2 | O=C(Cc1ccccc1)OC[C@H]1O[C@H](O[C@]2(CO)O[C@H](CO)[C@@H](O)[C@@H]2O)[C@H](O)[C@@H](O)[C@@H]1O [URB1480, β-D-fructofuranosyl 6-O-(2-Phenylethanoyl)-α-D-glucopyranoside] |  | 0.861 ± 0.076 mM | 0.791 ± 0.045 mM | only poorly affected TEER |  |  |  |  | 
3 | O=C(OC[C@H]1O[C@H](O[C@]2(CO)O[C@H](CO)[C@@H](O)[C@@H]2O)[C@H](O)[C@@H](O)[C@@H]1O)c1ccc(-c2ccccc2)cc1 [URB1481, β-D-fructofuranosyl 6-O-[2-(4-Phenyl)benzoyl]-α-D-glucopyranoside] |  | 0.305 ± 0.091 mM | 0.329 ± 0.023 mM | most effective surfactants for decreasing TEER | above 70% | more prominent permeation enhancing effect | three-fold increase | ~ 30% | 
4 | O=C(Cc1ccc(-c2ccccc2)cc1)OC[C@H]1O[C@H](O[C@]2(CO)O[C@H](CO)[C@@H](O)[C@@H]2O)[C@H](O)[C@@H](O)[C@@H]1O [URB1482, β-D-fructofuranosyl 6-O-[2-(4-Phenyl)phenylethanoyl]-α-D-glucopyranoside] |  | 0.095 ± 0.015 mM | 0.181 ± 0.026 mM | moderate action |  |  |  |  | 
5 | Lactose p-biphenyl acetate [URB1421] |  | 0.110 ± 0.017 mM | 0.259 ± 0.063 mM | moderate action |  |  |  |  | 
6 | Lactose p-phenyl benzoate [URB1420] |  | 0.270 ± 0.015 mM | 0.344 ± 0.034 mM | most effective surfactants for decreasing TEER |  |  |  | ~ 30% | 
7 | Lactose phenyl acetate [URB1419] |  | 0.753 ± 0.084 mM | 0.729 ± 0.075 mM | moderate action |  |  |  |  | ≥ 70%
